According to paper PMC10706087, “The Subtype Selectivity in Search of Potent Hypotensive Agents among 5,5-Dimethylhydantoin Derived α1-Adrenoceptors Antagonists” (International Journal of Molecular Sciences, 2023):
Values joined by “and” are separate entries in the source; they are usually repeats but may differ in a detail not shown here. Equal entries are not always repeated. Structures can show the parent of a compound that is named as a salt. Where two headings read alike, the source gives them in different places.

How the values were obtained:
[1] = target: α1-adrenoceptors (α1-ARs), rat cerebral cortex; conditions: cited from earlier work
[2] = system: arterial blood pressure of normotensive Wistar rats; assay: Influence on blood pressure in normotensive anesthetized rats after i.v. administration; format: in vivo, rat; conditions: for Diastolic blood pressure / Systolic blood pressure: 2.0 mg/kg i.v., mean, n = 6; for effect on systolic and diastolic blood pressure (in words): i.v., normotensive anesthetized rats
In short: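 Normotensive rats were given thiopental (75 mg/kg) intraperitoneally as anesthesia. A heparinized saline-filled polyethylene tube was placed in the left carotid artery, and blood pressure was recorded with a PowerLab Apparatus. Compounds dissolved in ethyl alcohol 5% − kolliphor 5% − water 90% were injected intravenously at 1 mL/kg after 20 min of stabilization. Pressures were compared by two-way ANOVA with Sidak's post-hoc test.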

[3] = target: T1, human adrenergic receptor α1A (Homo sapiens, UniProt P35348); assay: Intrinsic activity, aequorin luminescence functional assay at α1A-AR; format: cell-based; conditions: for α1A-AR Profile: agonist/antagonist profile; for IC50: cells expressing aequorin and human α1A, against phenylephrine, means of three independent experiments in duplicates; for Selectivity Ratio α1B/α1A: selectivity for α1A-AR (IC50(α1B-AR)/IC50(α1A-AR))
T1 sequence (P35348 1-466): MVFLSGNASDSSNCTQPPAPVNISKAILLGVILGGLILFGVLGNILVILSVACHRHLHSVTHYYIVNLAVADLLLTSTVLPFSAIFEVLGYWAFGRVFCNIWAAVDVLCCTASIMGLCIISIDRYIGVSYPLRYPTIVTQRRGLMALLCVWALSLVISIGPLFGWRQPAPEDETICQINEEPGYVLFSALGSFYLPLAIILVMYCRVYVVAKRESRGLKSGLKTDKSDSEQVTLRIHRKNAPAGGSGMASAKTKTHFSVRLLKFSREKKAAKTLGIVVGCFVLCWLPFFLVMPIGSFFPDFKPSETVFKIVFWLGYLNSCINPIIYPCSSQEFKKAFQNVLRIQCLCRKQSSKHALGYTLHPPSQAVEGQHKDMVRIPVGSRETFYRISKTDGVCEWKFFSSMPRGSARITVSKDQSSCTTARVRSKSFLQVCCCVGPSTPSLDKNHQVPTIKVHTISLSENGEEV

[4] = target: T2, human adrenergic receptor α1B (Homo sapiens, UniProt P35368); assay: Intrinsic activity, aequorin luminescence functional assay at α1B-AR; format: cell-based; conditions: for α1B-AR Profile: agonist/antagonist profile; for IC50: cells expressing aequorin and human α1B, against phenylephrine, means of three independent experiments in duplicates; for Selectivity Ratio α1A/α1B: selectivity for α1B-AR (IC50(α1A-AR)/IC50(α1B-AR))
T2 sequence (P35368 1-520): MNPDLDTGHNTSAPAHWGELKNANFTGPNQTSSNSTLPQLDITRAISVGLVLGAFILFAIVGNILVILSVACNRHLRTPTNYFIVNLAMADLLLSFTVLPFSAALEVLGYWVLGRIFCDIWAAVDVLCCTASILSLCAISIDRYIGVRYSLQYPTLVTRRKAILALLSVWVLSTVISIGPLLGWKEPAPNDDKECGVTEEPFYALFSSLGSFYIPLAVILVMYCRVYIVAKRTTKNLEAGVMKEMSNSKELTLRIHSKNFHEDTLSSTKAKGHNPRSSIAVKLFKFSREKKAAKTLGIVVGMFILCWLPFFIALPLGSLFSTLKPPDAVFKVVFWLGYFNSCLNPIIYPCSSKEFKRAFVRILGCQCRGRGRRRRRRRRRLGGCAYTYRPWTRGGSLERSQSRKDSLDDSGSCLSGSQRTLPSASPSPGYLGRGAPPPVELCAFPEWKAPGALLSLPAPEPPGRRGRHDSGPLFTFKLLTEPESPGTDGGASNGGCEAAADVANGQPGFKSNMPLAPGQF

[5] = target: α1-adrenoceptors (α1-ARs), rat cerebral cortex; assay: Radioligand binding assay with [3H]-prazosin, affinity for α1-ARs; conditions: three independent experiments in duplicates, read-out: α1-adrenoceptor affinity Ki
[6] = 0 min (initial, before administration)

| SMILES | Diastolic blood pressure [2, 6] | Systolic blood pressure [2, 6] | Diastolic blood pressure ([2]; 5 min) | Systolic blood pressure ([2]; 5 min) | Diastolic blood pressure ([2]; 10 min) | Systolic blood pressure ([2]; 10 min) | Diastolic blood pressure ([2]; 20 min) | Systolic blood pressure ([2]; 20 min) | Diastolic blood pressure ([2]; 30 min) | Systolic blood pressure ([2]; 30 min) | Diastolic blood pressure ([2]; 40 min) | Systolic blood pressure ([2]; 40 min) | Diastolic blood pressure ([2]; 50 min) | Systolic blood pressure ([2]; 50 min) | Diastolic blood pressure ([2]; 60 min) | melting point | α1A-AR Profile [3] | IC50 [3] | Selectivity Ratio α1B/α1A [3] | α1B-AR Profile [4] | other results |
| --- | --- | --- | --- | --- | --- | --- | --- | --- | --- | --- | --- | --- | --- | --- | --- | --- | --- | --- | --- | --- | --- |
| COc1ccccc1N1CCN(CCCCCN2C(=O)N(Cc3ccccc3)C(=O)C2(C)C)CC1 [PI] |  |  |  |  |  |  |  |  |  |  |  |  |  |  |  |  |  |  |  |  | Ki ([1]; lead structure, Figure 2, read-out: α1R Ki): 0.0426 µM |
| COc1cc2nc(N3CCN(C(=O)c4ccco4)CC3)nc(N)c2cc1OC [Prazosin, prazosin hydrochloride] |  |  |  |  |  |  |  |  |  |  |  |  |  |  |  |  |  |  |  |  | Ki ([1]; published previously, read-out: α1-adrenoceptor affinity Ki): 0.00024 µM |
| CC1(C)C(=O)N(Cc2ccc(Cl)cc2Cl)C(=O)N1CCCCCN1CCN(c2ccccc2)CC1.Cl [Compound 3, 3-(2,4-dichlorobenzyl)-5,5-dimethyl-1-(5-(4-phenylpiperazin-1-yl)pentyl)imidazolidine-2,4-dione hydrochloride] | 93.7 | 132.2 | 90.3 | 123.3 | 81.2 | 113.7 | 81.7 | 113.0 | 83.2 | 116.3 | 82.7 | 116.3 | 84.2 | 120.3 | 83.8 | 218 to 220 °C | Antagonist | 0.29 µM | 0.01 | Antagonist | Systolic blood pressure ([2]; 60 min): 119.7; effect on systolic and diastolic blood pressure (in words) [2]: statistically significant reduction; IC50 [4]: < 0.011 µM and 0.00327 µM; selectivity for α1B-AR over α1A-AR ([4]; from IC50 ratio): ~ 90 fold; Selectivity Ratio α1A/α1B [4]: 88.73; Ki [5]: 0.043 µM |
| COc1ccccc1N1CCN(CC(O)CN2C(=O)N(Cc3ccc(Cl)cc3Cl)C(=O)C2(C)C)CC1.Cl (centres unmarked) [Compound 13, 3-(2,4-dichlorobenzyl)-1-(2-hydroxy-3-(4-(2-methoxyphenyl)piperazin-1-yl)propyl)-5,5-dimethylimidazolidine-2,4-dione hydrochloride] | 98.0 | 130.7 | 61.2 | 102.8 | 70.8 | 107.7 | 77.3 | 109.3 | 82.2 | 112.7 | 82.8 | 113.3 | 82.2 | 117.2 | 83.7 | 144 to 146 °C | Antagonist | 0.139 µM | 2.39 | Antagonist | Systolic blood pressure ([2]; 60 min): 118.0; effect on systolic and diastolic blood pressure (in words) [2]: statistically significant reduction; selectivity for α1A-AR over α1B-AR ([3]; from IC50 ratio): ~ 2 fold; IC50 [4]: 0.331 µM; Selectivity Ratio α1A/α1B [4]: 0.42; Ki [5]: 0.029 µM |
| Cc1ccc(N2CCN(CC(O)CN3C(=O)N(Cc4ccc(Cl)cc4Cl)C(=O)C3(C)C)CC2)cc1C.Cl (centres unmarked) [Compound 12, 3-(2,4-dichlorobenzyl)-1-(3-(4-(3,4-dimethylphenyl)piperazin-1-yl)-2-hydroxypropyl)-5,5-dimethylimidazolidine-2,4-dione hydrochloride] | 104.2 | 139.0 | 98.2 | 134.7 | 99.5 | 134.5 | 97.8 | 132.0 | 96.7 | 131.0 | 97.0 | 129.0 | 96.8 | 130.0 | 97.3 | 217 to 219 °C | Antagonist | 3.14 µM | 0.12 | Antagonist | IC50 [4]: 0.377 µM; Selectivity Ratio α1A/α1B [4]: 8.31; Ki [5]: 0.27 µM |
